Measurements published in US20230265065A1 (WEST VIRGINIA UNIVERSITY BOARD OF GOVERNORS ON BEHALF OF …, priority 2020, published 2023).
Entries after “also recorded” stand apart in the source; their conditions may differ.

Assays:
PTPRδ [1] = biological target: T1, PTPRδ (Homo sapiens, UniProt P23468); assay: Preliminary LAR-PTP inhibition assay at pH 8; type: biochemical; conditions: pH 8, 100 μM compound, 30 min preincubation
T1 sequence (P23468 1357-1612): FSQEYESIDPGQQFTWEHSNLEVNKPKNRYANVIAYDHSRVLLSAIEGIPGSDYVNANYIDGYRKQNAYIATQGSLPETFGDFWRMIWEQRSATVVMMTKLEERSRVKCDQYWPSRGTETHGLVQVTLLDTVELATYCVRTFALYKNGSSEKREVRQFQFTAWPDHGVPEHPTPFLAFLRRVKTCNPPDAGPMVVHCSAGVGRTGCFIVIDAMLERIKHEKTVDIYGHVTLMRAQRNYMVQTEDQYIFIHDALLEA
Procedure: The illudalogs of this invention show inhibitory activity against LAR-PTPs in preliminary assays at pH 6.5 and pH 8 (FIG. 9). In all assays, 100 μM of compound was incubated with enzyme for 30 min prior to the assay. […] This apparent pH-dependence is consistent with the postulated two-stage binding mechanism and will be investigated further. There is some variation in potency and selectivity across the analogues, although these preliminary assays are not precise enough to support quantitative conclusions.

LAR [2] = biological target: T2, LAR (Homo sapiens, UniProt P10586); assay: Standard phosphatase assay (DiFMUP) with LAR, pH 6.5, 22° C.
T2 sequence (P10586 1352-1607): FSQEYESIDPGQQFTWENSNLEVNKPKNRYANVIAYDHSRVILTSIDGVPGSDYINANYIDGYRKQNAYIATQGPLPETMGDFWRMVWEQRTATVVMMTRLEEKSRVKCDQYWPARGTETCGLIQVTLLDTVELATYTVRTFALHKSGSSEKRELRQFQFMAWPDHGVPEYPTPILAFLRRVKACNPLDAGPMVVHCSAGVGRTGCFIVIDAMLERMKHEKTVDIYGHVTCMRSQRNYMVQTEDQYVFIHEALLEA
Procedure: Enzyme activity assays are performed in black 96-well plates containing a total volume of 100 μL in each well. […] Prior to each assay, the enzyme is activated by incubating in Bis-Tris buffer (50 mM Bis-Tris pH 6.5, 100 mM NaCl, 0.01% Brij 35, 1 mM EDTA) with 5 μL of 100 mM TCEP on ice for 30 min. Buffer, enzyme, and either a DMSO control or the compound of interest are added to each well of the 96-well plate and incubated for 30 min at room temperature. After this 30-min preincubation period, the substrate DiFMUP is added to initiate the reaction. The observed fluorescence resulting from the hydrolysis of DiFMUP is measured every 60 s for 30 min in a SpectraMax M5 plate reader with excitation and emission wavelengths of 350 and 455 nm, respectively.
Assays to investigate time-dependent inhibition are performed as described in the initial inhibitory screen assays section with slight modifications. Buffer and enzyme are initially added to each well, followed by sequential addition of inhibitor starting from the longest incubation time to the shortest.
Assays to determine kobs values were performed as described in the Initial inhibitory screen assays section above with slight modification. Buffer, inhibitor and DMSO were added to each well as appropriate. Enzyme was then added to each well and allowed to incubate for the desired time, followed by addition of DiFMUP to initiate the assay.

PTPRδ [3] = biological target: T1, PTPRδ; assay: PTP panel inhibition, PTPRδ; type: biochemical; design: We maintain a library of PTP catalytic domains
[4] = system: LAR-PTP subfamily (LAR, PTPRσ, and PTPR^δ); assay: PTP panel screen, LAR-PTP subfamily; type: biochemical, human; conditions: panel also with PTP1B, SHP2, and CD45
Procedure: (§1) We screen illudalogs against a panel of PTPs including PTPRD, as illustrated in FIG. 16. […] Typical experimental conditions are 5-10 nM enzyme, 1-10 μM DiFMUP, and 250 nM inhibitor at 37° C.

SHP2 = biological target: T3, SHP2 (Homo sapiens, UniProt Q06124); assay: PTP panel screen, SHP2; type: biochemical; conditions: 250 nM
T3 construct: We maintain a library of PTP catalytic domains
T3 sequence (Q06124 247-517): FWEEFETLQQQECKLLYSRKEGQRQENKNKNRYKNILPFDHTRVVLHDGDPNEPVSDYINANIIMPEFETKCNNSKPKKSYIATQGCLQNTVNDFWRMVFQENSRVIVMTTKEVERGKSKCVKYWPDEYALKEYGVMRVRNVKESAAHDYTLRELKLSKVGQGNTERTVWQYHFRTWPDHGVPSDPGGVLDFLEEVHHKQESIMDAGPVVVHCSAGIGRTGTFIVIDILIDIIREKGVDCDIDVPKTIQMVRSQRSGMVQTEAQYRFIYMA
Procedure: as §1

PTPRD [5] = biological target: T4, PTPRD (Homo sapiens, UniProt P23468); assay: PTPRD inhibitor screen and IC50 at pH 7.5 and 37° C.; type: biochemical; conditions: 1 μM
T4 construct: We maintain a library of PTP catalytic domains
T4 sequence (P23468 1357-1612): T1 sequence (P23468 1357-1612)

PTPRD [6] = biological target: T4, PTPRD; assay: as above; type: biochemical; conditions: for PTPRD inhibition in preliminary screening assays: 1 μM and 250 nM; for IC50: pH 7.5 and 37° C.
CD45 = biological target: T5, CD45 (Homo sapiens, UniProt P08575); assay: PTP panel inhibition, CD45; type: biochemical
T5 construct: We maintain a library of PTP catalytic domains
T5 sequence (P08575 653-912): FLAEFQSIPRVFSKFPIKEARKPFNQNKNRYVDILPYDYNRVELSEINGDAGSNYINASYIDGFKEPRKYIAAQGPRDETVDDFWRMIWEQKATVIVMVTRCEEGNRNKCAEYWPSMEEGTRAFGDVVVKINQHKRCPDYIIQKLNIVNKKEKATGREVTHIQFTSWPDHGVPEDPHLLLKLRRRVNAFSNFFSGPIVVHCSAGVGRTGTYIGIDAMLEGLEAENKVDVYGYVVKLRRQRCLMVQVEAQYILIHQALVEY

LAR [7] = biological target: T2, LAR; assay: Reversibility of LAR inhibition by dialysis; type: biochemical; design: We maintain a library of PTP catalytic domains; conditions: preliminary experiments
[8] = Storage stability as pure substance or in DMSO; type: physicochemical; conditions: room temperature for six months
Excerpt: As discussed above, our new synthetic approach focuses on convergent benzannulation, followed by conversion to the ortho-formyl hydroxy-lactone pharmacophore (FIG. 1). […] LiAlH4, then 6M HCl, ca. 40-70% yields of IAn compounds, which generally precipitate from aqueous acid as white crystalline solids. Intermediates 5 can be isolated for derivatization prior to acidic hydrolysis or advanced directly to the IAn compounds. Optimization is proposed and in progress. Currently, IA1 is produced in ca. 27% yield over 4 steps from 3. We have prepared >35 g of ester 2; ≥100 mg of IA1 and IA3; and ≥10 mg each of the other illudalog compounds of this invention. […] For IA1, we access β-keto amide 1a in two steps from known enal 3.^61 Other β-keto amides 1 provide parallel access to diverse illudalog cores (e.g., 1b→IA3, FIG. 1, bottom). We prepare β-keto ester 2^62 on multigram-scale using CDI-mediated decarboxylative coupling;^63 we have >35 g of 2 in stock. β-Keto ester 2 is the common building block for illudalogs prepared thus far; it comprises functional precursors to the hydroxy-lactone. The benzannulation is adapted from a known naphthol annulation.^64 The final reduction and hydrolysis sequence can be executed as a one-pot operation or with isolation of intermediate 5. Presumably, the deprotonated phenol directs reduction of the ortho-amide over the para-ester. […]

**Q.** For `COc1c(C=O)c2c(c3c1CC(C)(C)C3)C(=O)OC(O)C2` (stereo not drawn) [IA1-6OMe], which “potency and selectivity for PTPR^δ over other LAR-PTPs” value (PTPRδ [1]) is on record?
**A.** Its value is “potent and selective for PTPR^δ over LAR and PTPR^δ”.

**Q.** What about the “selectivity for LAR compared to other PTPs” value (LAR [2]; 100 μM inhibitor, pH 6.5, 22 degrees Centigrade) of the same compound?
**A.** Its value is “more selective for LAR”.

**Q.** And the “inhibitory activity in standard phosphatase assays” value (LAR [2]; LAR, standard assays)?
**A.** Its value is “inhibit”.

**Q.** And the “initial thermodynamic binding affinity K1” value (LAR [2]; LAR, standard assays)?
**A.** Its value is “too weak”.

**Q.** What about the “kinetic covalent ligation rate kinact” value (LAR [2]; LAR, standard assays) of the same compound?
**A.** The value was “too fast”.

**Q.** What about the IC50 (LAR [2]; read-out: IC50 (LAR), standard assays, pH 6.5 and 22° C.) of the same compound?
**A.** Its IC50 is 55000 ± 6000 nM.

**Q.** And the “inhibition of PTPRδ activity” value (PTPRδ [3])?
**A.** The value was “inhibit”.

**Q.** For `CC1(C)CCc2c(c(O)c(C=O)c3c2C(=O)OC(O)C3)C1` (stereo not drawn) [IA2-8Me2], which “potency and selectivity for the LAR subfamily” value ([4]; listed as 15) is on record?
**A.** Its value is “most potent and is selective for the LAR subfamily”.

**Q.** And the inhibition at 0.25 µM (SHP2)?
**A.** The inhibition at 0.25 µM was greater than 50%.

**Q.** Which “potency and selectivity for the LAR subfamily” value ([4]; listed as 16) does the source give for `CC1(C)CCc2c(O)c(C=O)c3c(c2C1)C(=O)OC(O)C3` (stereo not drawn) [IA2-9Me2] here?
**A.** Its value is “different selectivity profile within the LAR subfamily”.

**Q.** For `CCOc1c(C=O)c2c(c3ccccc13)C(=O)OC(O)C2` (stereo not drawn) [IA3-6OEt], which “PTPRD inhibitory activity on rescreening” value (PTPRD [5]) is on record?
**A.** The value was “lower inhibitory activity”.

**Q.** For `COc1c(C=O)c2c(c3ccccc13)C(=O)OC(O)C2` (stereo not drawn) [IA3-6OMe], which “PTPRD inhibitory activity on rescreening” value (PTPRD [5]) is on record?
**A.** The value was “lower inhibitory activity”.

**Q.** With `O=Cc1c2c(c3ccc(Br)cc3c1O)C(=O)OC(O)C2` (stereo not drawn) [IA3-8Br] as the compound, how does the “PTPRD inhibition in preliminary screening assays” value (PTPRD [6]) read?
**A.** The value was “potent PTPRD inhibitors”.

**Q.** With `C#Cc1ccc2c3c(c(C=O)c(O)c2c1)CC(O)OC3=O` (stereo not drawn) [IA3-8C2H] as the compound, how does the “PTPRD inhibition in preliminary screening assays” value (PTPRD [6]) read?
**A.** Its value is “potent PTPRD inhibitors”.

**Q.** With `O=Cc1c2c(c3cc(F)c(F)cc3c1O)C(=O)OC(O)C2` (stereo not drawn) [IA3-89F] as the compound, how does the IC50 (PTPRD [6]) read?
**A.** Its IC50 is 51 ± 5 nM.

**Q.** With `CC1(C)Cc2c(O)c(C=O)c3c(c2C1)C(=O)OC(O)C3` (stereo not drawn) [illudalic acid, reference compound] as the compound, how does the IC50 (PTPRD [6]) read?
**A.** Its IC50 is 90 ± 14 nM.

**Q.** What about the “inhibition of CD45 activity” value (CD45) of the same compound?
**A.** Its value is “inhibited”.

**Q.** And the “recovery of enzyme activity by dialysis” value (LAR [7])?
**A.** Its value is “enzyme activity cannot be recovered by dialysis”.

**Q.** And the “inhibitory activity in standard phosphatase assays” value (LAR [2]; LAR, standard assays)?
**A.** Its value is “active; also recorded: inhibit”.

**Q.** What about the “inhibition of PTPRδ activity” value (PTPRδ [3]) of the same compound?
**A.** The value was “inhibit”.

**Q.** And the “stability of NMR sample in DMSO” value [8]?
**A.** The value was “unchanged”.
